In patent publication US5545648A (Canadian Spinal Research Organization, priority 1992, dated 1996):
“And” between values parts separate entries of the source, which are not always exact repeats. Identical values can stand only once. “Also recorded” adds a separate entry of the source.

Columns and labels:
[1] = Plasma levels of 4-AP after intravenous infusion (column liquid chromatography); type: in vivo, human
Procedure: The drug was obtained in purified powder form from the Regis Chemical Company (Morton Grove, Ill.) and prepared as an injectable solution, using a 0.9% saline vehicle (Uges and Huizinga, 1981), by the pharmacy of St. Joseph's Hospital. The pharmacy was also responsible for testing pyrogenicity, randomizing the order in which drug and vehicle were administered to different patients, and for providing an escalating scale of dosage during the course of the study. The 4-AP for the first two patients was prepared at a concentration of 3 mg/ml, and the concentration was increased to 4 and 5 mg/ml for succeeding subjects (see Table 1). The drug was further diluted by a factor of 50 times in dextrose saline before delivery, and was administered in the form of a continuous intravenous infusion at a rate of 150 ml/hr controlled by a peristaltic infusion pump. Therefore the delivery rate of the drug increased from 9 mg/hr in the first two patients to 15 mg/hr in the last four. Total intended dosage ranged from 18 to 30 mg. The vehicle control was indistinguishable from the drug solution and was delivered in an identical manner.
(§1) The schedule of each trial was the same. The patient was admitted to the hospital on the preceding day and in the early morning was assessed by neurological examination and electro-diagnostic evaluation. Administration of the drug or placebo, through an in dwelling venous catheter, was then begun and continued for approximately 2 hours, arranged in 20 minute sequences based on delivery of 1 ml aliquots of the 4-AP solution. The patient was monitored electroencephalographically at frequent intervals throughout the procedure. Samples of blood and urine were obtained from an additional intravenous catheter and from the urinary catheter respectively. Blood was obtained at intervals up to 5 hours from the beginning of drug delivery and urine obtained pre-infusion and at 1 and 2 hours after the beginning of infusion. The patients were re-evaluated by complete neurological examination, by the same examiner, at the end of the period of drug delivery. They were then re-examined with the electrodiagnostic tests. A more limited neurological examination was sometimes performed during drug delivery in an attempt to identify any early changes, without producing significant testing fatigue. The electrodiagnostic tests were repeated at 2 hours after the cessation of drug delivery. Patients showing apparent effects of the treatment remained in the hospital overnight and were examined on the following day. Subsequent contact with the patients was by telephone interview or as a result of their correspondence regarding longer term changes associated with their treatment.
(§2) Two of the patients who reported more prolonged effects of the drug were returned to the hospital after 4 months for a second, unblinded trial, which included neurological examinations daily for 3-4 days. Plasma samples were also obtained daily from these two patients, for measurement of 4-AP.
Measurement of 4-AP in plasma and urine
Samples of blood were collected from an in dwelling venous catheter in the arm opposite that into which the drug was delivered. Ten or eleven such samples were obtained at intervals up to 5 hours after the initiation of drug delivery (see FIG. 1). Urine samples were withdrawn from the patients' urinary catheter bags at 1 and 2 hours after the initiation of drug infusion.
Plasma and urine samples were stored at -80° C. until 4-AP levels were analyzed by means of column liquid chromatography, according to a technique described in detail elsewhere (Kostka et al, 1992). Briefly, both plasma and urine samples were subjected to benzoylation by the Schotten-Baumann reaction to convert 4-AP to N-benzoyl-4-AP (Bz4-AP) prior to liquid-liquid -extraction. Propionyl procainamide (PPA) was chosen as the internal standard. […]

[2] = test system: spinal cord injured patients; assay: Deep tendon (segmental) reflex score; type: in vivo, human
Procedure: as §1
Segmental reflexes (biceps, triceps, knee- and ankle-jerk) were evaluated in the conventional manner with a reflex hammer and scored on a 0-4 point scale:
0--no detectable response
2--brisk response of normal amplitude
3--abnormally large amplitude response
4--large amplitude response with some clonus.
The total possible score in a patient with hyperreflexia and clonus in all tested muscles was 32.

[3] = test system: spinal cord injured patients; assay: Neurological examination, motor and sensory score (modified ASIA standards), double-blind placebo-controlled crossover study; type: in vivo, human; parameters: key to change in sensory score, -ve / change in sensory score, +ve / change in sensory score, -ve, TOTAL: change in summed sensory points (each item graded 0-4)
Procedure: The experimental design was a double-blind, placebo-controlled, crossover study in which each patient was administered the drug and a vehicle control on different occasions, separated by two weeks. The order of delivery was randomized.
as §1, §2
Patients were evaluated using a modified form of the American Spinal Injury Association (ASIA) Standards for Neurological Classification of Spinal Injury Patients (revised 1990). The modifications were mainly required to simplify the examination so that it could be performed on patients lying on a bed with intravenous catheters, electrodes and urethral catheters restricting the range of motion. Examinations performed after the day of drug delivery were made on an outpatient basis with the subjects partially clothed, and evaluation of dermatomes was sometimes incomplete. Each part of the examination was videotaped for later review and was repeated on the two sides of the body.
Grading of motor abilities was made on the ASIA 0-5 point scale wherever possible:
0--absent (total paralysis)
1--trace (palpable or visible contraction producing little or no movement around joint)
2--poor (active movement through much or all of the normal range of motion, with gravity eliminated--where relevant)
3--fair (active movement through full range of motion against gravity)
4--good (active movement against resistance)
The muscles examined included: deltoid, biceps, triceps, wrist extensors, wrist flexors, finger flexors and extensors (combined), hip flexors (iliopsoas), hip extensors, quadriceps, hamstrings, ankle dorsiflexors (tibiails anterior) and plantarflexors (gastrocnemius, soleus), and toe extensors (extensor hallucis longus). The total possible score for the full motor examination was 130.
Sensory abilities were graded on an analogous 0-4 point scale:
0--absent (no ability to detect the stimulus)
1--trace (patchy or variable ability to detect stimulus with little or no resolution of quality)
2--light (able to detect stimulus but much weaker, or of altered quality relative to equivalent unaffected areas) […]

[4] = test system: surviving myelinated axons of spinal cord; conditions: single nerve fibers; cited from earlier work
[5] = 2 hours after infusion of 4-AP, total of subjects
[6] = 2 hours after infusion of 4-AP, total of 8 subjects
[7] = 2 hours after infusion of 4-AP, total of 8 subjects, without vibration
[8] = 2 hours after infusion of 4-AP, total possible 130, one line per subject: b160 RB, b161 SC, HT, LJ, EB, GCh, AW, GCu
[9] = 2 hours after infusion of 4-AP, total possible 224, without vibration, one line per subject: b160 RB, b161 SC, HT, LJ, EB, GCh, AW, GCu

SMILES: Nc1ccncc1 [4-AP, 4-aminopyridine]
- plasma level of 4-AP after end of infusion ([1]; 2-3 hours after the end of infusion, all subjects): significant plasma level
- plasma level remaining relative to peak level ([1]; by 2 days after the infusion, from rate of decline in two patients): less than 1%
- correlation of peak plasma level with dose administered ([1]; dose in mg/kg/hr (FIG. 2)): correlated significantly
- concentration at 48 h ([1]; human, plasma, iv, 48 hours / 2 days after second, unblinded administration, subjects, read-out: 4-AP plasma concentration (below limit of detection)): < 3 ng/mL
- time of peak level in the circulation ([1]; i.v. infusion approximately 2 hours): slightly before or after the end of the infusion period
- peak plasma level achieved for each mg/kg infused ([1]; i.v. infusion over approximately 2 hours, least squares regression, per mg/kg): approximately 0.27 mg/l
- plasma level of 4-AP the day after infusion ([1]; second administration, two subjects): detectable levels of the drug in the plasma the day after infusion
- correlation of time course of elimination with prolonged neurological effects ([1]; two subjects, 3-4 days): clearly did not correlate
- oscillation of measured drug levels ([1]; up to 5 hours from start of infusion, most subjects): some degree of oscillation of the measured drug levels; also recorded: oscillation in the measured drug levels
- deep tendon reflex scores at 24 and 48 hours ([2]; 24 and 48 hours, EB, GCh): slight reductions in deep tendon reflex scores at 24 and 48 hours after infusion
- change in score for deep tendon reflexes, arms, TOTAL [2, 5]: +13
- change in score for deep tendon reflexes, legs, TOTAL [2, 5]: +2
- change in score for deep tendon reflexes, legs ([2]; 2 hours after infusion of 4-AP, total possible 32, subject one, SC, HT, GCh, AW, GCu): +2 and +1 and -2 and 0 and +3
- change in score for deep tendon reflexes, arms ([2]; 2 hours after infusion of 4-AP, total possible 32, subject one, SC, HT, GCh, GCu): +4 and +1 and 0
- reflex responses at 24 hours ([2]; 24 hours, AW, LJ): reduced reflex responses
- deep tendon reflex amplitude immediately after infusion ([2]; predominantly in the arms): marked tendency for increase in amplitude of deep tendon reflexes
- change in motor score, +ve, TOTAL [3, 6]: +26
- change in motor score, -ve, TOTAL [3, 6]: 0
- change in sensory score, +ve, TOTAL [3, 7]: +66
- change in sensory score, -ve, TOTAL [3, 7]: -7
- change in motor score, +ve [3, 8]: 0 and +4 and +16 and +2
- change in motor score, -ve [3, 8]: 0
- change in sensory score, +ve [3, 9]: 0 and +3 and +2 and +14 and +27 and +20
- change in sensory score, -ve [3, 9]: 0 and -5 and -2
- initial pinprick response in most distal dermatomes ([3]; 2 hours after infusion, second trial): initial depression of response in the most distal dermatomes
- pinprick sensation and joint position sense below the lesion ([3]; 24 hours, not seen at 2 hours, subject three): striking improvement of pinprick sensation and joint position sense below the lesion
- persistence of motor score increase ([3]; 24 hours, second trial, subject four): increases in score were sustained at 24 hours after infusion
- persistence of pinprick improvement ([3]; 48 hours post infusion, second trial, EB and GCh): still detectable at 48 hour post infusion in both cases
- reversal of sensory effect ([3]; 72 hours, subject GCh, second trial): returned completely to pre-infusion status; also recorded: entirely reversed by 72 hours
- time of maximal motor improvement ([3]; after infusion, second trial, subject four (FIG. 5)): 2 h
- time of maximal improvement in sensory (pinprick) score ([3]; after infusion, second trial, subjects): 24 h
- motor performance, greater endurance / reversal of leg muscle rigidity effects ([3]; second administration, leg muscles, hip and knee): reduction in the spasticity of leg muscles led at times to a reduction of motor power
- pinprick sensation below level of injury ([3]; second, unblinded administration, EB and GCh): remarkable increase in the response to pinprick stimulation below the level of injury
- overcoming of conduction block [4]: Some of this conduction block can be overcome
